According to patent US8088930B2, “Benzimidazole derivatives” (Hoffmann-La Roche Inc., priority 2008, dated 2012):

molecular target: T1, FXR ligand binding domain (GST-FXR LBD fusion protein, human FXR aa 193-473) (Homo sapiens, UniProt Q96RI1); assay: Radioligand binding assay (scintillation proximity, radioligand displacement); settings: 40 nM GST-FXR LBD on SPA beads, test compound 6×10^−9 M to 2.5×10^−5 M, read-out: h-IC50 Binding
T1 construct: fused on or other part: Glutathione-S-transferase (GST) fused N-terminally to the FXR LBD, used to capture the protein on glutathione SPA beads
T1 sequence (Q96RI1 211-486 limits assumed): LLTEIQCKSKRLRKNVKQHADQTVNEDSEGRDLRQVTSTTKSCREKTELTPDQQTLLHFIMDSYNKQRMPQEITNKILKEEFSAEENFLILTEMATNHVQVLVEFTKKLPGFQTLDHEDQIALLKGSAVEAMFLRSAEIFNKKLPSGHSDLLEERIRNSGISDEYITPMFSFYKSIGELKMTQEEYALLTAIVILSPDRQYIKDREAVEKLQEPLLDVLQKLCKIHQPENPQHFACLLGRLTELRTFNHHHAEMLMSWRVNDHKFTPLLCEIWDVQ
Summary of the method: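 40 nM GST-FXR LBD, E. coli-expressed, bound to glutathione yttrium silicate SPA beads in 50 mM Hepes pH 7.4, 10 mM NaCl, 5 mM MgCl2, 0.01% CHAPS. Test compounds displace radioligand (e.g. 20 nM benzimidazolyl-acetamide ligand); bound ligand measured by scintillation proximity counting.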

IC50 [nM] | SMILES
30 | Cc1cc(Cl)ccc1-c1nc2cc(F)c(F)cc2n1C(COc1ccc(C(=O)O)cn1)C1CCCCC1 (stereo not drawn) [Example 123, 6-{2-[2-(4-Chloro-2-methyl-phenyl)-5,6-difluoro-benzoimidazol-1-yl]-2-cyclohexyl-ethoxy}-nicotinic acid]
3 | Cc1cc(Cl)ccc1-c1nc2cc(F)c(F)cc2n1C(COc1c(F)cc(C(=O)O)cc1F)C1CCCCC1 (stereo not drawn) [Example 124, 4-{2-[2-(4-Chloro-2-methyl-phenyl)-5,6-difluoro-benzoimidazol-1-yl]-2-cyclohexyl-ethoxy}-3,5-difluoro-benzoic acid]
1 | Fc1cc2nc(-c3ccc(Cl)cc3)n(C(COc3c(F)cc(-c4nnn[nH]4)cc3F)C3CCCCC3)c2cc1F (stereo not drawn) [Example 127, 2-(4-Chloro-phenyl)-1-{1-cyclohexyl-2-[2,6-difluoro-4-(1H-tetrazol-5-yl)-phenoxy]-ethyl}-5,6-difluoro-1H-benzoimidazole]
20 | Fc1cc(-c2nnn[nH]2)cc(F)c1OCC(C1CCCCC1)n1c(-c2ccc(Cl)cc2)nc2ccccc21 (stereo not drawn) [Example 128, 2-(4-Chloro-phenyl)-1-{1-cyclohexyl-2-[2,6-difluoro-4-(1H-tetrazol-5-yl)-phenoxy]-ethyl}-1H-benzoimidazole]
20 | COc1ccc(-c2nc3cc(F)c(F)cc3n2C(COc2c(F)cc(-c3nnn[nH]3)cc2F)C2CCCCC2)c(OC)n1 (stereo not drawn) [Example 129, 1-{1-Cyclohexyl-2-[2,6-difluoro-4-(1H-tetrazol-5-yl)-phenoxy]-ethyl}-2-(2,6-dimethoxy-pyridin-3-yl)-5,6-difluoro-1H-benzoimidazole]
300 | O=C(O)c1ccc(OCC(C2CCCCCC2)n2c(-c3ccc(Cl)cc3)nc3cc(F)c(F)cc32)nc1 (stereo not drawn) [Example 130, 6-{2-[2-(4-Chloro-phenyl)-5,6-difluoro-benzoimidazol-1-yl]-2-cycloheptyl-ethoxy}-nicotinic acid]
20 | O=C(O)c1cc(F)c(OCC(C2CCCCCC2)n2c(-c3ccc(Cl)cc3)nc3cc(F)c(F)cc32)c(F)c1 (stereo not drawn) [Example 131, 4-{2-[2-(4-Chloro-phenyl)-5,6-difluoro-benzoimidazol-1-yl]-2-cycloheptyl-ethoxy}-3,5-difluoro-benzoic acid]
10 | Cc1cc(-c2nnn[nH]2)cc(C)c1OCC(C1CCC(F)(F)CC1)n1c(-c2ccc(Cl)cc2)nc2cc(F)c(F)cc21 (stereo not drawn) [Example 134, 2-(4-Chloro-phenyl)-1-{1-(4,4-difluoro-cyclohexyl)-2-[2,6-dimethyl-4-(1H-tetrazol-5-yl)-phenoxy]-ethyl}-5,6-difluoro-1H-benzoimidazole]
20 | Cc1cc(-c2nnn[nH]2)cc(C)c1OCC(C1CCCC1)n1c(-c2ccc(Cl)cc2)nc2cc(F)c(F)cc21 (stereo not drawn) [Example 135, 2-(4-Chloro-phenyl)-1-{1-cyclopentyl-2-[2,6-dimethyl-4-(1H-tetrazol-5-yl)-phenoxy]-ethyl}-5,6-difluoro-1H-benzoimidazole]
100 | Cc1cc(-c2nnn[nH]2)cc(C)c1OCC(C1CC1)n1c(-c2ccc(Cl)cc2)nc2cc(F)c(F)cc21 (stereo not drawn) [Example 136, 2-(4-Chloro-phenyl)-1-{1-cyclopropyl-2-[2,6-dimethyl-4-(1H-tetrazol-5-yl)-phenoxy]-ethyl}-5,6-difluoro-1H-benzoimidazole]
3 | Fc1cc2nc(-c3ccc(Cl)cc3)n(C(CNc3ccc(-c4nnn[nH]4)cc3)C3CCCCC3)c2cc1F (stereo not drawn) [Example 139, {2-[2-(4-Chloro-phenyl)-5,6-difluoro-benzoimidazol-1-yl]-2-cyclohexyl-ethyl}-[4-(1H-tetrazol-5-yl)-phenyl]-amine]
70 | O=C(O)c1ccc(SCC(C2CCCCC2)n2c(-c3ccc(Cl)cc3)nc3cc(F)c(F)cc32)cc1 (stereo not drawn) [Example 140, 4-{2-[2-(4-Chloro-phenyl)-5,6-difluoro-benzoimidazol-1-yl]-2-cyclohexyl-ethylsulfanyl}-benzoic acid]
8200 | O=C(O)c1ccc(S(=O)(=O)CC(C2CCCCC2)n2c(-c3ccc(Cl)cc3)nc3cc(F)c(F)cc32)cc1 (stereo not drawn) [Example 141, 4-{2-[2-(4-Chloro-phenyl)-5,6-difluoro-benzoimidazol-1-yl]-2-cyclohexyl-ethanesulfonyl}-benzoic acid]
5 | O=C(O)c1ccc(CCC(C2CCCCC2)n2c(-c3ccccc3)nc3cc(F)c(F)cc32)cc1 (stereo not drawn) [Example 142, 4-[3-Cyclohexyl-3-(5,6-difluoro-2-phenyl-benzoimidazol-1-yl)-propyl]-benzoic acid]
0.3 | COc1ccc(-c2nc3cc(F)c(F)cc3n2C(CCc2ccc(C(=O)O)cc2)C2CCCCC2)c(OC)n1 (stereo not drawn) [Example 145, 4-{3-Cyclohexyl-3-[2-(2,6-dimethoxy-pyridin-3-yl)-5,6-difluoro-benzoimidazol-1-yl]-propyl}-benzoic acid]
